Reference: PMC5459885, “Relaxin-Family Peptide Receptors 1 and 2 Are Fully Functional in the Bovine” (Frontiers in Physiology, 2017)
“Also recorded” adds a separate entry of the source.

B1: bovine INSL3 (protein, UniProt O77801 22-66; O77801 27-66; O77801 107-132, looked up)
Insulin-like 3 B' chain: GPAAAQEAPEKLCGHHFVRALVRLCGGPRWSSEEDGRPVAGGDRE
Insulin-like 3 B chain: QEAPEKLCGHHFVRALVRLCGGPRWSSEEDGRPVAGGDRE
Insulin-like 3 A chain: ATAINPARHCCLSGCTRQDLLTLCPH
notes: bovine insulin-like peptide 3, cognate ligand of bovine RXFP2
B2: human INSL3 (protein, UniProt P51460 21-55; P51460 106-131, looked up)
Insulin-like 3 B chain: LGPAPTPEMREKLCGHHFVRALVRVCGGPRWSTEA
Insulin-like 3 A chain: AAATNPARYCCLSGCTQQDLLTLCPY
notes: human insulin-like peptide 3

Assays:
hRXFP2 = assay: cAMP production, HEK 293T cells permanently transfected with hRXFP2; type: cell-based, human; settings: for EC50: hRXFP2, permanently transfected HEK 293T, 20 min stimulation, cAMP by TRFIA, three-parameter non-linear regression, pRLN converted to nM assuming MW 6 kD and purity 85%, its curve had not reached an asymptote at highest concentration
Description: (§1) For transfection, the Neon electroporation system (Invitrogen) was used: the bRXFP1 or bRXFP2 expression plasmids were mixed with HEK 293T cells in a ratio of ~0.2 μg DNA/50,000 cells/well (48-well plate), and pulsed at 1,300 V for 30 ms to transfect the DNA into the cells. Plasmids were allowed to express for 24 h with the transfected cells cultured in DMEM/F12 (1:1) at 37°C with 5% CO2. In parallel, HEK 293T cells which had been permanently transfected with human RXFP1 or human RXFP2 (Heng et al., [2008]) were plated at 50,000 cells/well in a 48-well plate, and cultured overnight in DMEM/F12 (1:1) with 10% bovine fetal serum, 2 mM L-glutamine and 1% Penicillin-Streptomycin at 37°C with 5% CO2.
(§2) For the transient and permanently transfected HEK 293T cells and the primary myometrial (6,000 cells/well) and theca cells (20,000 cells/well), after the initial pre-culture period (as above) medium was changed and supplemented or not with 1 mM IBMX (3-isobutyl-1-methylxanthine; Sigma) as indicated (30 min for myometrial cells, 10 min for theca cells). Following this pre-incubation, cells were supplemented or not with various peptides, also as indicated in the figure legends, and incubation continued for a further 20 min. Total cAMP was extracted from the combined cells and culture medium from each well and measured by time-resolved fluorescent immunoassay (TRFIA) as described in Anand-Ivell et al. ([2007]). cAMP production by the transfected HEK 293 cells was measured directly (range1–243 pmol/ml); cAMP from primary myometrial and theca cells made use of the more sensitive TRFIA employing sample acetylation (detection range 0.04–9.72 pmol/ml).
(§3) All data were analyzed and plotted using GraphPad Prism 6. The EC50 values were calculated by non-linear regression of log (agonist) against response (three parameter). All column data were analyzed by ANOVA followed by Neuman-Keuls post-hoc test.

bRXFP2 = assay: cAMP production, HEK293T cells transiently transfected with bRXFP2; type: cell-based, bovine; settings: for stimulation of cAMP production: bRXFP2 (Figure 9B, Table 1); for EC50: bRXFP2, transient transfection HEK293T, 20 min stimulation, cAMP by TRFIA, three-parameter non-linear regression, pRLN converted to nM assuming MW 6 kD and purity 85%
Text: (§4) Preliminary studies, prior to the publication of the bovine genome project, had employed heterologous RT-PCR primers, derived from human sequence information, together with RNA from selected bovine tissues. Initial sequence information obtained was subsequently fully confirmed by the bovine genome project, which is used here for reference. Having confirmed by RT-PCR the correct sequences for the full-length functional bRXFP1 and bRXFP2 transcripts, expression constructs were generated, whereby the signal peptides of the two receptor sequences were replaced by the signal peptide-encoding sequence from the bovine prolactin gene, together with an intermediate short FLAG sequence, exactly as used previously for the expression of the human RXFP1 and RXFP2, and other G-protein coupled receptors (Hsu et al., [2000], [2002]). The two final bovine constructs were generated from assembled multiple oligonucleotides (custom gene synthesis by GeneArt, Regensburg, Germany), their sequences confirmed, and inserted into the vector pcDNA3.1/Zeo(+) (Invitrogen) for expression.
as §1, §2, §3

bRXFP1 = assay: cAMP production, HEK293T cells transiently transfected with bRXFP1; type: cell-based, bovine; settings: for EC50: bRXFP1, transient transfection HEK293T, 20 min stimulation, cAMP by TRFIA, three-parameter non-linear regression, pRLN converted to nM assuming MW 6 kD and purity 85%, bINSL3 curve had not reached an asymptote at highest concentration; for stimulation of cAMP production: bRXFP1, within the range of concentration applied (Figure 9A)
Text: as §4, §1, §2, §3

hRXFP1 = assay: cAMP production, HEK 293T cells permanently transfected with hRXFP1; type: cell-based, human; settings: hRXFP1, permanently transfected HEK 293T, 20 min stimulation, cAMP by TRFIA, three-parameter non-linear regression, pRLN converted to nM assuming MW 6 kD and purity 85%
Description: as §1, §2, §3

RXFP1 = settings: ref Bathgate et al., 2006; cited from earlier work
Text: The relaxin family of peptide hormones includes, besides relaxin (RLN2), also relaxin 3 (RLN3), insulin-like peptide 3 (INSL3), INSL5, and INSL6. Additionally, within higher primates and humans there is RLN1 and INSL4. […] RLN2 and INSL3 on the other hand are usually expressed in reproductive tissues of both sexes and ...

bovine sperm = settings: ref Miah et al., 2011; cited from earlier work
Text: (§5) For many years there has been a controversy surrounding the existence or not of relaxin in ruminants, including cattle, sheep, and goats (Hartung et al., [1995]). A RLN2 homologous molecule is definitely expressed at the mRNA and/or protein levels in related ungulates, such as pigs, camels, llamas, and horses (James et al., [1977]; Stewart et al., [1991]; Bravo et al., [1996]; Hombach-Klonisch et al., [2000]; ncbi database: www-ncbi-nlm-nih-gov).

bovine myometrial cells = assay: cAMP production in primary bovine myometrial cells; type: cell-based; settings: 20 min, 1 mM IBMX (Figure 8A)
Description: Bovine tissues were obtained from the local slaughterhouse. Tissue collection was in accordance with German, British and European laws and provisions for ethical regulation. Cumulus-oocyte complexes (COCs) were collected and categorized exactly as in Janowski et al. ([2012]). For oocyte RNA preparation, COCs were mechanically denuded using a glass pipette followed by a 2 min trypsin incubation (1x Trypsin-EDTA solution; T4174; Sigma, Deisenhofen, Germany) to remove residual cumulus cells, then frozen at −80°C. Bovine myometrial cells were prepared from excised uteri exactly as in Heng et al. ([2008]). The isolated myometrial cells were plated at 6,000 cells/well in a 48-well plate and cultured at 37°C with 5% CO2 for 5 days before stimulation. Bovine ovaries without an obvious corpus luteum were selected for the isolation of granulosa and theca interna cells from mid-phase antral follicles (ca. 6–10 mm diameter) using standard procedures (Holtorf et al., [1989]; Bathgate et al., [1999]). Follicular fluid, including COCs and granulosa cells, was aspirated from the follicles, and collected in granulosa culture medium (DMEM/F-12 (1:1) with 1% bovine fetal serum, 1% antibiotic-antimycotic (ABAM), 2 mM L-glutamine). After manually removing the COCs, the granulosa cells were harvested by centrifugation (150 g, 10 min) and rinsed once with culture medium as above. Four to six millimeters follicles were obtained by dissection. The theca interna layer of mid-phase antral follicles was peeled off and digested with collagenase IV (1 mg/ml) in Medium 199, including trypsin inhibitor (100 μg/ml) at 38°C for 1 h. The isolated theca cells were collected and washed in Medium 199 with 1% ABAM. […]
as §2, with “Following this pre-incubation, cells were supplemented or not with various peptides, also as indicated in the figure legends, and incubation continued for a further 20 min.” left out
as §3

bovine luteal cells = bovine luteal cells in culture; ref Musah et al., 1990; cited from earlier work
Text: as §5

beef cows = settings: applied locally or systemically to beef cows at term; ref Musah et al., 1987; cited from earlier work
Text: as §5

bovine theca cells = assay: cAMP production in primary bovine theca cells; type: cell-based; settings: 20 min, 1 mM IBMX (Figure 8B,C)
Description: Bovine tissues were obtained from the local slaughterhouse. Tissue collection was in accordance with German, British and European laws and provisions for ethical regulation. Cumulus-oocyte complexes (COCs) were collected and categorized exactly as in Janowski et al. ([2012]). For oocyte RNA preparation, COCs were mechanically denuded using a glass pipette followed by a 2 min trypsin incubation (1x Trypsin-EDTA solution; T4174; Sigma, Deisenhofen, Germany) to remove residual cumulus cells, then frozen at −80°C. Bovine myometrial cells were prepared from excised uteri exactly as in Heng et al. ([2008]). […]
as §2, with “Following this pre-incubation, cells were supplemented or not with various peptides, also as indicated in the figure legends, and incubation continued for a further 20 min.” left out, “pmol/ml). […]” for “pmol/ml).”

Molecule | EC50 (hRXFP2) | stimulation of cAMP production (bRXFP2) | EC50 (bRXFP2) | EC50 (bRXFP1) | stimulation of cAMP production (bRXFP1) | EC50 (hRXFP1) | cAMP production (bovine myometrial cells) | other results
recombinant human relaxin [rhRLN] | 53.9 nM | could stimulate at very high concentration | 27.3 nM | 48.7 nM | showed any stimulation within the range of concentration applied | 0.9 nM |  | EC50 (hRXFP1; listed as human RLN): < 1 nM
relaxin 3 [hRLN3] |  | unable to stimulate |  | 97.9 nM | showed any stimulation within the range of concentration applied | 14.6 nM |  | stimulation of cAMP production (hRXFP2; hRXFP2 (Table 1)): unable to stimulate; stimulation of cAMP production (bRXFP2; listed as RLN3): but not RLN3, could stimulate at very high concentration; affinity at RXFP1 (RXFP1): reduced affinity
relaxin |  |  |  |  |  |  | significant increase in cAMP | sperm functional parameters (bovine sperm): significantly to affect bovine sperm functional parameters
porcine relaxin [pRLN] | > 12 nM | could stimulate at very high concentration | 10.5 nM | 10.8 nM | showed any stimulation within the range of concentration applied | 0.4 nM | significant stimulation was observed at all concentrations applied | oxytocin production (bovine luteal cells): significantly suppressed oxytocin production; softening and dilatation response (beef cows): elicited a classic softening and dilatation response, thereby influencing calving period; EC50 (hRXFP1; listed as porcine RLN): < 1 nM
B1 | 0.6 nM | effective at low concentrations | 0.7 nM |  |  |  |  | EC50 (bRXFP2; listed as bovine INSL3): < 1 nM; cAMP production (bovine theca cells): dose-dependent increase in cAMP; also recorded: able significantly to stimulate cAMP production in a dose-dependent manner; cAMP production (bovine myometrial cells; listed as INSL3): significant increase in cAMP; cAMP production (bovine myometrial cells; listed as bovine INSL3): significant stimulation was observed at all concentrations applied
B2 | 0.7 nM |  | 0.6 nM |  |  |  |  | 
